# Results from ChEMBL document CHEMBL3352542, “Synthesis, biological evaluation and molecular modeling study of 2-(1,3,4-thiadiazolyl-thio and 4-methyl-thiazolyl-thio)-quinazolin-4-ones as a new class of DHFR inhibitors” (Bioorg Med Chem Lett, 2014).
# The source made the active and inactive calls. No cut-off for these calls is given here.
# Assays:
# UO-31 = test: Growth inhibition of human UO31 cells at 10 uM after 48 hrs; format: functional
# K562 = test: Growth inhibition of human K562 cells at 10 uM after 48 hrs; format: functional
# RPMI-8226 = test: Growth inhibition of human RPMI8226 cells at 10 uM after 48 hrs; format: functional
# BT-549 = test: Growth inhibition of human BT549 cells at 10 uM after 48 hrs; format: functional
# Staphylococcus aureus = test: Antimicrobial activity against Staphylococcus aureus assessed as inhibition zone at 200 ug/disk after 24 hrs by disc-diffusion method; format: functional; conditions: read-out: IZ
# 786-0 = test: Growth inhibition of human 786-0 cells at 10 uM after 48 hrs; format: functional
# SK-MEL-5 = test: Growth inhibition of human SK-MEL-5 cells at 10 uM after 48 hrs; format: functional
# SW-620 = test: Growth inhibition of human SW620 cells at 10 uM after 48 hrs; format: functional
# Pseudomonas aeruginosa = test: Antimicrobial activity against Pseudomonas aeruginosa assessed as inhibition zone at 200 ug/disk after 24 hrs by disc-diffusion method; format: functional; conditions: read-out: IZ
# OVCAR-8 = test: Growth inhibition of human OVCAR8 cells at 10 uM after 48 hrs; format: functional
# SF-295 = test: Growth inhibition of human SF295 cells at 10 uM after 48 hrs; format: functional
# A549 = test: Growth inhibition of human A549 cells at 10 uM after 48 hrs; format: functional
# NCI-H522 = test: Growth inhibition of human NCI-H522 cells at 10 uM after 48 hrs; format: functional
# SNB-75 = test: Growth inhibition of human SNB75 cells at 10 uM after 48 hrs; format: functional
# Dihydrofolate reductase = molecular target: T1, Dihydrofolate reductase (Bos taurus, UniProt P00376); test: Inhibition of bovine liver DHFR
# T1 sequence (P00376 whole entry): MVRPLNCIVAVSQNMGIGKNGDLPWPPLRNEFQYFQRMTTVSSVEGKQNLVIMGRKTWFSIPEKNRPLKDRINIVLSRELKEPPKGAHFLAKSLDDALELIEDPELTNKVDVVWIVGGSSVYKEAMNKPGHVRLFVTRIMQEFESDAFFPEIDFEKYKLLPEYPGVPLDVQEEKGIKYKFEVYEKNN
# NCI-H460 = test: Growth inhibition of human NCI-H460 cells at 10 uM after 48 hrs; format: functional
# SF-539 = test: Growth inhibition of human SF539 cells at 10 uM after 48 hrs; format: functional
# Candida albicans = test: Antimicrobial activity against Candida albicans assessed as inhibition zone at 200 ug/disk after 24 hrs by disc-diffusion method; format: functional; conditions: read-out: IZ
# KM12 = test: Growth inhibition of human KM12 cells at 10 uM after 48 hrs; format: functional
# SF-268 = test: Growth inhibition of human SF268 cells at 10 uM after 48 hrs; format: functional
# SN12C = test: Growth inhibition of human SN12C cells at 10 uM after 48 hrs; format: functional
# HL-60(TB) = test: Growth inhibition of human HL-60(TB) cells at 10 uM after 48 hrs; format: functional
# COLO 205 = test: Growth inhibition of human COLO205 cells at 10 uM after 48 hrs; format: functional
# Bacillus subtilis = test: Antimicrobial activity against Bacillus subtilis assessed as inhibition zone at 200 ug/disk after 24 hrs by disc-diffusion method; format: functional; conditions: read-out: IZ
# MDA-MB-468 = test: Growth inhibition of human MDA-MB-468 cells at 10 uM after 48 hrs; format: functional
# HCT-15 = test: Growth inhibition of human HCT15 cells at 10 uM after 48 hrs; format: functional
# MOLT-4 = test: Growth inhibition of human MOLT4 cells at 10 uM after 48 hrs; format: functional
# A498 = test: Growth inhibition of human A498 cells at 10 uM after 48 hrs; format: functional
# MDA-MB-435 = test: Growth inhibition of human MDA-MB-435 cells at 10 uM after 48 hrs; format: functional
# OVCAR-5 = test: Growth inhibition of human OVCAR5 cells at 10 uM after 48 hrs; format: functional
# CAKI-1 = test: Growth inhibition of human CAKI-1 cells at 10 uM after 48 hrs; format: functional
# CCRF-CEM = test: Growth inhibition of human CCRF-CEM cells at 10 uM after 48 hrs; format: functional
# NCI-H23 = test: Growth inhibition of human NCI-H23 cells at 10 uM after 48 hrs; format: functional
# OVCAR-4 = test: Growth inhibition of human OVCAR4 cells at 10 uM after 48 hrs; format: functional
# MDA-MB-231 = test: Growth inhibition of human MDA-MB-231 cells at 10 uM after 48 hrs; format: functional
# LOX IMVI = test: Growth inhibition of human LOXIMVI cells at 10 uM after 48 hrs; format: functional
# SR = test: Growth inhibition of human SR cells at 10 uM after 48 hrs; format: functional
# NCI/ADR-RES = test: Growth inhibition of human NCI-ADR-RES cells at 10 uM after 48 hrs; format: functional
# HCT-116 = test: Growth inhibition of human HCT116 cells at 10 uM after 48 hrs; format: functional
# Escherichia coli = test: Antimicrobial activity against Escherichia coli assessed as inhibition zone at 200 ug/disk after 24 hrs by disc-diffusion method; format: functional; conditions: read-out: IZ
# HCC 2998 = test: Growth inhibition of human HCC2998 cells at 10 uM after 48 hrs; format: functional
# PC-3 = test: Growth inhibition of human PC3 cells at 10 uM after 48 hrs; format: functional
# U-251 = test: Growth inhibition of human U251 cells at 10 uM after 48 hrs; format: functional
# Malme-3M = test: Growth inhibition of human MALME-3M cells at 10 uM after 48 hrs; format: functional
# Hs-578T = test: Growth inhibition of human Hs 578T cells at 10 uM after 48 hrs; format: functional
# RXF 393 = test: Growth inhibition of human RXF393 cells at 10 uM after 48 hrs; format: functional
# ACHN = test: Growth inhibition of human ACHN cells at 10 uM after 48 hrs; format: functional
# HT-29 = test: Growth inhibition of human HT-29 cells at 10 uM after 48 hrs; format: functional
# T47D = test: Growth inhibition of human T47D cells at 10 uM after 48 hrs; format: functional
# UACC-257 = test: Growth inhibition of human UACC257 cells at 10 uM after 48 hrs; format: functional
# MCF7 = test: Growth inhibition of human MCF7 cells at 10 uM after 48 hrs; format: functional
# OVCAR-3 = test: Growth inhibition of human OVCAR3 cells at 10 uM after 48 hrs; format: functional
# HOP-92 = test: Growth inhibition of human HOP92 cells at 10 uM after 48 hrs; format: functional
# SNB-19 = test: Growth inhibition of human SNB19 cells at 10 uM after 48 hrs; format: functional
# TK-10 = test: Growth inhibition of human TK10 cells at 10 uM after 48 hrs; format: functional
# UACC-62 = test: Growth inhibition of human UACC62 cells at 10 uM after 48 hrs; format: functional
# M14 = test: Growth inhibition of human M14 cells at 10 uM after 48 hrs; format: functional
# NCI-H226 = test: Growth inhibition of human NCI-H226 cells at 10 uM after 48 hrs; format: functional
smiles,measurement,setting,value
Cc1ccc(-n2c(Sc3sc(N)nc3C)nc3ccc(C)cc3c2=O)cc1,growth inhibition (GI),UO-31,inactive
same,growth inhibition (GI),K562,inactive
same,growth inhibition (GI),RPMI-8226,inactive
same,growth inhibition (GI),BT-549,inactive
same,zone of inhibition at 200 µg/disc,Staphylococcus aureus,8 mm
same,growth inhibition (GI),786-0,inactive
same,growth inhibition (GI),SK-MEL-5,inactive
same,growth inhibition (GI),SW-620,inactive
same,zone of inhibition at 200 µg/disc,Pseudomonas aeruginosa,8 mm
same,growth inhibition (GI),OVCAR-8,inactive
same,growth inhibition (GI),SF-295,inactive
same,growth inhibition (GI),A549,inactive
same,growth inhibition (GI),NCI-H522,inactive
same,growth inhibition (GI),SNB-75,inactive
same,IC50,Dihydrofolate reductase,7 µM
same,growth inhibition (GI),NCI-H460,inactive
same,growth inhibition (GI),SF-539,inactive
same,zone of inhibition at 200 µg/disc,Candida albicans,8 mm
same,growth inhibition (GI),KM12,inactive
same,growth inhibition (GI),SF-268,inactive
same,growth inhibition (GI),SN12C,inactive
same,growth inhibition (GI),HL-60(TB),inactive
same,growth inhibition (GI),COLO 205,inactive
same,zone of inhibition at 200 µg/disc,Bacillus subtilis,8 mm
same,growth inhibition (GI),MDA-MB-468,inactive
same,growth inhibition (GI),HCT-15,inactive
same,growth inhibition (GI),MOLT-4,inactive
same,growth inhibition (GI),A498,inactive
same,growth inhibition (GI),MDA-MB-435,inactive
same,growth inhibition (GI),OVCAR-5,inactive
same,growth inhibition (GI),CAKI-1,inactive
same,growth inhibition (GI),CCRF-CEM,inactive
same,growth inhibition (GI),NCI-H23,inactive
same,growth inhibition (GI),OVCAR-4,inactive
same,growth inhibition (GI),MDA-MB-231,inactive
same,growth inhibition (GI),LOX IMVI,inactive
same,growth inhibition (GI),SR,inactive
same,growth inhibition (GI),NCI/ADR-RES,inactive
same,growth inhibition (GI),HCT-116,inactive
same,zone of inhibition at 200 µg/disc,Escherichia coli,8 mm
same,growth inhibition (GI),HCC 2998,inactive
same,growth inhibition (GI),PC-3,inactive
same,growth inhibition (GI),U-251,inactive
same,growth inhibition (GI),Malme-3M,inactive
same,growth inhibition (GI),Hs-578T,inactive
same,growth inhibition (GI),RXF 393,inactive
same,growth inhibition (GI),ACHN,inactive
same,growth inhibition (GI),HT-29,inactive
same,growth inhibition (GI),T47D,inactive
same,growth inhibition (GI),UACC-257,inactive
same,growth inhibition (GI),MCF7,inactive
same,growth inhibition (GI),OVCAR-3,inactive
same,growth inhibition (GI),HOP-92,inactive
same,growth inhibition (GI),SNB-19,inactive
same,growth inhibition (GI),TK-10,inactive
same,growth inhibition (GI),UACC-62,inactive
same,growth inhibition (GI),M14,inactive
same,growth inhibition (GI),NCI-H226,inactive
Cc1ccc2nc(Sc3nnc(N)s3)n(Cc3ccccc3)c(=O)c2c1,growth inhibition (GI),UO-31,inactive
same,growth inhibition (GI),K562,inactive
same,growth inhibition (GI),RPMI-8226,inactive
same,growth inhibition (GI),BT-549,inactive
same,zone of inhibition at 200 µg/disc,Staphylococcus aureus,8 mm
same,growth inhibition (GI),786-0,inactive
same,growth inhibition (GI),SK-MEL-5,inactive
same,growth inhibition (GI),SW-620,inactive
same,zone of inhibition at 200 µg/disc,Pseudomonas aeruginosa,8 mm
same,growth inhibition (GI),OVCAR-8,inactive
same,growth inhibition (GI),SF-295,inactive
same,growth inhibition (GI),A549,inactive
same,growth inhibition (GI),NCI-H522,inactive
same,growth inhibition (GI),SNB-75,inactive
same,IC50,Dihydrofolate reductase,2 µM
same,growth inhibition (GI),NCI-H460,inactive
same,growth inhibition (GI),SF-539,inactive
same,zone of inhibition at 200 µg/disc,Candida albicans,8 mm
same,growth inhibition (GI),KM12,inactive
same,growth inhibition (GI),SF-268,inactive
same,growth inhibition (GI),SN12C,inactive
same,growth inhibition (GI),HL-60(TB),inactive
same,growth inhibition (GI),COLO 205,inactive
same,zone of inhibition at 200 µg/disc,Bacillus subtilis,8 mm
same,growth inhibition (GI),MDA-MB-468,inactive
same,growth inhibition (GI),HCT-15,inactive
same,growth inhibition (GI),MOLT-4,inactive
same,growth inhibition (GI),A498,inactive
same,growth inhibition (GI),MDA-MB-435,inactive
same,growth inhibition (GI),OVCAR-5,inactive
same,growth inhibition (GI),CAKI-1,inactive
same,growth inhibition (GI),CCRF-CEM,inactive
same,growth inhibition (GI),NCI-H23,inactive
same,growth inhibition (GI),OVCAR-4,inactive
same,growth inhibition (GI),MDA-MB-231,inactive
same,growth inhibition (GI),LOX IMVI,inactive
same,growth inhibition (GI),SR,inactive
same,growth inhibition (GI),NCI/ADR-RES,inactive
same,growth inhibition (GI),HCT-116,inactive
same,zone of inhibition at 200 µg/disc,Escherichia coli,8 mm
same,growth inhibition (GI),HCC 2998,inactive
same,growth inhibition (GI),PC-3,inactive
same,growth inhibition (GI),U-251,inactive
same,growth inhibition (GI),Malme-3M,inactive
same,growth inhibition (GI),Hs-578T,inactive
same,growth inhibition (GI),RXF 393,inactive
same,growth inhibition (GI),ACHN,inactive
same,growth inhibition (GI),HT-29,inactive
same,growth inhibition (GI),T47D,inactive
same,growth inhibition (GI),UACC-257,inactive
same,growth inhibition (GI),MCF7,inactive
same,growth inhibition (GI),OVCAR-3,inactive
same,growth inhibition (GI),HOP-92,inactive
same,growth inhibition (GI),SNB-19,inactive
same,growth inhibition (GI),TK-10,inactive
same,growth inhibition (GI),UACC-62,inactive
same,growth inhibition (GI),M14,inactive
same,growth inhibition (GI),NCI-H226,inactive
